Results as given in patent US10718770B2, “Methods for screening compounds for treating or preventing a viral infection or a virus-related condition” (ABIVAX, priority 2015, dated 2020).

Tests used:
primary macrophages = assay: Cell viability of primary macrophages under treatment; assay type: cell-based, human; conditions: data not shown
PBMCs = assay: Lymphocyte populations in treated PBMCs; assay type: cell-based, human
[1] = test system: alternative splicing events of endogenous genes; assay: RT-PCR analysis of global alternative splicing events in PBMC samples; assay type: cell-based, human
Excerpt: Quantification of non-viral RNA splicing is achieved using the protocols detailed in Klinck et al. (Multiple alternative splicing markers for ovarian cancer. Cancer Res. 68, 657-663 (2008)) and Venables et al. (Cancer-associated regulation of alternative splicing. Nat. Struct. Mol. Biol. 16, 670-676 (2009)).
These 382 alternative splicing events (ASEs) represent a high throughput random snapshot of global alterations of alternative splicing. High throughput PCR analysis of these (essentially random) 382 ASEs on multiple PBMC samples was performed, either from untreated (cells) or treated with DMSO, Compound 1 or with the control antiviral drug (Darunavir). Analysis of the data allowed further stringent quality controls; ASEs were only considered if >75% of the products ran at the expected mobilities (i.e. if the reactions were pure) and if total expected PCR concentration was higher than 20 nM (i.e. if the reactions were strong) which led to 264 remaining ASEs.

[2] = test system: Rev-mediated export of viral RNA; assay: HIV reporter system (MS2-GFP) in HeLa cells: Rev-mediated export of viral RNA; assay type: cell-based; conditions: in the absence of Rev, data not shown
Excerpt: FIG. 8. Compound 1 influences Rev-mediated HIV RNA biogenesis and export. A) Schematic representation of the HIV-1 reporter gene B) Visualization of GFP-MS2-Bound RNA in HeLa cells expressing tat, MS2-GFP and HIV-reporter transcripts in non transfected or transfected cells with Rev. Rev-transfected cells were untreated (DMSO) or treated with Compound 1. Arrow indicates transcription site. C) Quantitation of images corresponding to untreated (DMSO) or treated (Compound 1) in (B), in terms of: total GFP (upper panel) expressed in RFU or Relative Fluorescence Units; in the nucleoplasm (middle panel) expressed in Number of Foci in Rev-transfected cells; or at the start site (lower panel) expressed as a percentage of nuclei with a starting transcription point. Box-plots show the average GFP intensity (foci numbers or starting transcription point numbers) of Rev-transfected HeLa cells for each condition. Whiskers correspond to the minimum and maximum, boxes, to the 25-75 percentiles and the band inside the box, to the median. […]
Cells plated on cover slips were fixed for 10 min in 3.7% formaldehyde (in PBS) followed by a 2-min permeabilization with 0.1% Triton X-100 (in PBS) and incubation in PBS containing 0.1% bovine serum albumin. […] Cells were washed in PBS mounted with DAKO mounting medium and observed under the fluorescence microscope. […]

FC(F)(F)Oc1ccc(Nc2ccc3cccc(Cl)c3n2)cc1 [Compound 1, 8-chloro-N-(4-(trifluoromethoxy)phenyl)quinolin-2-amine]
cell viability (primary macrophages): not decreased | effect on the different populations of lymphocytes present in PBMCs (PBMCs): did not alter | global effect on pre-mRNA splicing [1]: no global effect | effect on reporter cells [2]: no effect
